The test system of assay [1] is LPS induced IL-23 (p19/p40) in DC cells. In words: IL23-p19 ELISA, dendritic (DC) cells differentiated from human PBMC, LPS stimulated. It is filed as cell-based. The following applies: LPS 1 μg/ml, 18 hours, 10 pt. Here is the method: Compound Screening Using DC Cells
Human PBMC cells (400 million) obtained from the vendor were transferred into a T-175 flask containing 15 ml RPMI media (10% FBS) and incubate for 2 hours at 37° C. After 2 hours, the media including floating cells was aspirated out carefully and 12 ml of fresh RPMI media (10% FBS) containing GMCSF (100 ng/ml) and IL4 (20 ng/ml) was added, and the flask was kept in a 37° C. incubator for 7 days.
After 3 days, fresh GMCSF (100 ng/ml) and IL4 (20 ng/ml) were added to the flask and the incubation continued. After 7 days, the fully differentiated cells were harvested by spinning down (1200 rpm/5 min) and aspirating the media. The cells were suspended in fresh RPMI media (10% FBS) containing 50 ng/ml IFNγ (1000 U/ml) and then plated (50K/well in 100 μl) onto a white clear bottom 96 well plate and left in a 37° C. incubator for 24 hours.
After 24 hours incubation, 100 μl of RPMI media was added containing 2× concentrated test compound per well to the above cell-culture media (final concentration becomes 1×) and the plates were pre-incubated for 1 hour at 37° C. before stimulating with LPS.
After 1 hour compound pre-incubation, 10 μl per well of 20× concentrated LPS solution in RPMI media was added to give a final concentration of 1 μg/ml. The mixture was shaken and incubated the plates at 37° C. for an additional 18 hours.
155 μl of the supernatant was harvested from each well carefully (without the tip touching the bottom of the well) and to the remaining 50 μl/well of the cell culture plate was added 50 μl of Cell Titer Glo reagent. The mixture was incubated for 1-2 minutes on a shaker and the plate was read for luminescence intensity to determine the compound cytotoxicity. The cell culture supernatant collected above was used to carry out IL23 ELISA (65 μl—Supernatant) and IL10 ELISA (90 μl—Supernatant) as described below.
Human IL-23 (p19/p40) ELISA Protocol (e-Biosciences)
To 10.5 ml PBS add 50 μl of anti-IL23 (p19) was added capture antibody (2.5 μg/ml). The mixture was mixed well and 100 μl of the coating solution was added to each well of the 96 well white plates from Pierce. The wells were covered and incubated overnight at 4° C.
The anti-IL23 (p19)-antibody-coated plates were washed 2× using TBST (use plate washer) and blocked using 200 μl of 0.5% Casein for 1.5 to 2 hours at room temperature with shaking.
The plates were washed 2× using TBST and the supernatant was transferred (65 μl/well) to the above pre-blocked/IL23(p19)-antibody-coated 96 well plate, and incubated at room temperature for 1.5 hours with shaking.
The plates were washed 4× using TBST (plate washer) and 100 μl/well detection antibody solution prepared from 2 μl of biotin labeled anti-IL-12 (p40/p70) antibody in 11 ml 1% BSA/PBS solution (1-5000 dilution) was added. The plates were incubated for 1 hour with shaking at Room temperature.
Again, the plates were washed 4× with TBST and 100 μl of HRP labeled Streptavidin (R&D Systems) solution (10 μl/10 ml 1% BSA solution) was added, and the plates were incubated at room temperature for another 45 minutes with shaking.
After 45 minutes, the plates were washed with TBST 4× and 100 μl/well Super Signal ELISA Pico Chemiluminescent Substrate from Pierce (3.5 ml A+3.5 ml B+3.5 ml MQ water) was added. The plates were shaken for 1-2 minutes then read on a plate reader. […]
A general note: An ELISA detects its analyte on a solid surface through an enzyme-linked reagent.

The test system of assay [2] is LPS Induced IL23p19 in THP-1 Cells. The experiment in a line: LPS Induced IL23p19 in THP-1 Cells (with IFNγ Primed) Assay. Type of assay: cell-based, human. The settings on record: THP-1 cells primed with IFNγ 50 ng/mL, LPS 1 ug/mL, 18 hours, 10 pt, read-out: IL23-p19 ELISA, THP1-IFNγ, LPS, 10 pt EC50. From the text:
LPS Induced IL23p19 in THP-1 Cells (with IFNγ Primed) Assay
THP-1 Cells (ATCC, Cat #TIB-202), Dimethyl Sulfoxide (DMSO) (Sigma-Aldrich, Cat #D2650), RPMI 1640 (Cellgro, Cat #10-040-CM), Fetal Bovine Serum (Sigma, Cat #F4135), Albumin From Bovine Serum (BSA) (Sigma-Aldrich, Cat #A7906), LPS (Serotype K-235, Sigma, Product Number L 2143), IFNγ (Peprotech, Cat #300-02) Capture antibody: Human IL-23p19 ELISA (e-Bioscience, Cat. #14-7238-85), Detection antibody: Primary Mouse Biotinylated anti-human IL-12(p40/p70) (e-Bioscience, Cat. #13-7129-85), Secondary HRP-conjugated Streptavidin (R&D Systems, Cat #DY998), 1×PBST Washing Buffer (PBS-Tween tablet) (VWR International, Cat #80058-558), ELISA Blocking Buffer (PBS with 1% BSA), ELISA Dilution Buffer (PBS with 1% BSA), 384 Well Flat-Bottom, MaxiSorp Black Immuno Plates (Thermo Scientific, Cat #12-565-346), 384 Well Flat-Bottom, White Tissue Culture Plates (Thermo Scientific, Cat #12-565-343), Super Signal ELISA Pico Chemiluminescent Substrate (Thermo Scientific, Cat #37070), Cell Titer Glo reagent (Promega, Cat #G7573), Positive control, IKK2VI inhibitor (Calbiochem, Cat #401483), AquaMax 4000 plate washer (Molecular Devices), Luminometer, Wallac Victor2 1420 Multilabel Counter.
On day 1, 50K/well THP-1 cells were seeded and primed with IFNγ (50 ng/mL) in 384-well plates for about 18 hours in RPMI media with 10% FBS. On day 2, the compound was serially diluted in DMSO from 5 mM in 3-fold dilutions, and then diluted 1:125 in RPMI media with 10% FBS. 50 μL/well 2× compound was added to 50 μL/well THP-1 cells (with IFNγ primed) in duplicate in 384 well tissue culture plates. The cells were pre-incubated with compound for 1 hour at 37° C., 5% CO2 before addition of 10 μL/well 11×LPS to give a final concentration of 1 ug/mL LPS. Day 3, after stimulation for 18 hours at 37° C., 5% CO2, the assay plate was centrifuged and 70 μL/well supernatant was harvested. IL-23p19 protein in 70 µL/well of supernatant was measured by sandwich ELISA, and 25 μl/well Cell Titer Glo reagent was added to the remaining cells to measure compound toxicity.
Human IL-23p19 Sandwich ELISA:
Maxisorp immuno ELISA plates were pre-coated with 25 μL/well of anti-IL-23p19 capture antibody (2.5 ug/mL) in PBS overnight at room temperature. After washing with 1×PBST, the plates were blocked using 100 μL/well of 1% BSA in PBS for 2 hours at room temperature. The plates were washed three times with 1×PBST and 70 μL/well supernatant were added. The plates were incubated at room temperature for 2 hours with shaking and washed three times with 1×PBST. 25 μL/well of biotin labeled anti-IL-12(p40/p70) detection antibody (100 ng/mL) in PBS with 1% BSA was added and the plates were incubated at room temperature for 2 hours with shaking. After washing three times with 1×PBST, 25 μL/well of streptavidin-HRP (1:200) in PBS with 1% BSA was added and the plates were incubated at room temperature for 20 minutes with shaking. The plates were washed three times with 1×PBST and 25 μL/well of Super Signal ELISA Pico Chemiluminescent Substrate were added. The plates were read with a luminometer, and the chemiluminescence values were entered into Athena (Rigel) for curve fitting, EC50 calculation, and database storage. […]

Read-outs that look alike come from different tables or passages of the source.

As a reminder, the EC50 is the concentration giving half of the maximal effect. Regarding `O=C(Nc1cn(C2CCOCC2)nc1-c1ccccn1)c1coc(-c2cn[nH]c2)n1` [Compound I-20, 2-(1H-pyrazol-4-yl)-N-(3-(pyridin-2-yl)-1-(tetrahydro-2H-pyran-4-yl)-1H-pyrazol-4-yl)oxazole-4-carboxamide], the concentration giving a half-maximal response (EC50) in assay [1] (Table 3, IFNγ 50 ng/ml) came to 135 nM; in assay [2] (Table 3) it was 39.9 nM.
Turning to `CCOCCn1cc(NC(=O)c2coc(-c3cn[nH]c3)n2)c(-c2ccccn2)n1` [Compound I-21, N-(1-(2-ethoxyethyl)-3-(pyridin-2-yl)-1H-pyrazol-4-yl)-2-(1H-pyrazol-4-yl)oxazole-4-carboxamide], the 50% effective concentration (EC50) in assay [1] (Table 3, IFNγ 50 ng/ml) was 170 nM; in assay [2] (Table 3) it was 243 nM.
The like results for `CCO[C@H]1C[C@@H](n2cc(NC(=O)c3coc(-c4cn[nH]c4)n3)c(-c3ccccn3)n2)C1` [Compound I-22, N-(1-((1s,3s)-3-ethoxycyclobutyl)-3-(pyridin-2-yl)-1H-pyrazol-4-yl)-2-(1H-pyrazol-4-yl)oxazole-4-carboxamide] were, in that order, 36.9 nM and 43.4 nM.
For `O=C(Nc1cn(C2CCC2)nc1-c1ccccn1)c1coc(-c2cn[nH]c2)n1` [Compound I-23, N-(1-cyclobutyl-3-(pyridin-2-yl)-1H-pyrazol-4-yl)-2-(1H-pyrazol-4-yl)oxazole-4-carboxamide], the EC50 in assay [1] (Table 3, IFNγ 50 ng/ml) is 71 nM; in assay [2] (Table 3), 270 nM.
On to `COCCOCCn1cc(NC(=O)c2coc(-c3cn[nH]c3)n2)c(-c2ccccn2)n1` [Compound I-24, N-(1-(2-(2-methoxyethoxy)ethyl)-3-(pyridin-2-yl)-1H-pyrazol-4-yl)-2-(1H-pyrazol-4-yl)oxazole-4-carboxamide], for which the EC50 came to 217 nM in assay [1] (Table 1, IFNγ 50 ng/ml) and 238 nM in assay [2] (Homo sapiens, Table 1).
As to `O=C(Nc1cn(CCOCC(F)F)nc1-c1ccccn1)c1coc(-c2cn[nH]c2)n1` [Compound I-25, N-(1-(2-(2,2-difluoroethoxy)ethyl)-3-(pyridin-2-yl)-1H-pyrazol-4-yl)-2-(1H-pyrazol-4-yl)oxazole-4-carboxamide], the EC50 in assay [1] (Table 3, IFNγ 50 ng/ml) came to 161 nM; in assay [2] (Table 3) it was 400 nM.
As to `O=C(Nc1cn([C@H]2CC[C@H](O)CC2)nc1-c1cnccn1)c1coc(-c2cn[nH]c2)n1` [Compound I-27, N-(1-((1r,4r)-4-hydroxycyclohexyl)-3-(pyrazin-2-yl)-1H-pyrazol-4-yl)-2-(1H-pyrazol-4-yl)oxazole-4-carboxamide], the EC50 in assay [1] (Table 1, IFNγ 50 ng/ml) came out at 64.1 nM; in assay [2] (Homo sapiens, Table 1), 15.8 nM.
In the same order, the values of `CCO[C@H]1CC[C@H](n2cc(NC(=O)c3coc(-c4cn[nH]c4)n3)c(-c3nc(F)c(F)cc3F)n2)CC1` [Compound I-28, N-(1-((1r,4r)-4-ethoxycyclohexyl)-3-(3,5,6-trifluoropyridin-2-yl)-1H-pyrazol-4-yl)-2-(1H-pyrazol-4-yl)oxazole-4-carboxamide] are 111 nM and 474 nM.
In the case of `CCO[C@H]1CC[C@H](n2cc(NC(=O)c3coc(-c4cn[nH]c4)n3)c(-c3cc(F)cc(F)n3)n2)CC1` [Compound I-29, N-(3-(4,6-difluoropyridin-2-yl)-1-((1r,4r)-4-ethoxycyclohexyl)-1H-pyrazol-4-yl)-2-(1H-pyrazol-4-yl)oxazole-4-carboxamide], the EC50 was determined as 207 nM in assay [1] (Table 1, IFNγ 50 ng/ml) and 976 nM in assay [2] (Homo sapiens, Table 1).
In the case of `O=C(Nc1cn(C2CCC(N3CCOCC3)CC2)nc1-c1cnccn1)c1coc(-c2cn[nH]c2)n1` (centres unmarked) [Compound I-30, N-(1-((1r,4r)-4-morpholinocyclohexyl)-3-(pyrazin-2-yl)-1H-pyrazol-4-yl)-2-(1H-pyrazol-4-yl)oxazole-4-carboxamide], the EC50 in assay [1] (Table 1, IFNγ 50 ng/ml) stood at 6.5 nM; in assay [2] (Homo sapiens, Table 1), 2.8 nM.
Turning to `CCO[C@H]1CC[C@H](n2cc(NC(=O)c3coc(-c4cn[nH]c4)n3)c(-c3nc(C(F)(F)F)ccc3F)n2)CC1` [Compound I-31, N-(1-((1r,4r)-4-ethoxycyclohexyl)-3-(3-fluoro-6-(trifluoromethyl)pyridin-2-yl)-1H-pyrazol-4-yl)-2-(1H-pyrazol-4-yl)oxazole-4-carboxamide], the EC50 in assay [1] (Table 1, IFNγ 50 ng/ml) came to 973 nM; in assay [2] (Homo sapiens, Table 1) it was 688 nM.
For `CCO[C@H]1CC[C@H](n2cc(NC(=O)c3coc(-c4cn[nH]c4F)n3)c(-c3cnccn3)n2)CC1` [Compound I-32, N-(1-((1r,4r)-4-ethoxycyclohexyl)-3-(pyrazin-2-yl)-1H-pyrazol-4-yl)-2-(5-fluoro-1H-pyrazol-4-yl)oxazole-4-carboxamide], the EC50 in assay [1] (Table 1, IFNγ 50 ng/ml) amounted to 417 nM; in assay [1] (Table 2, IFNγ 50 ng/ml), 417 nM; in assay [2] (Table 1), 204 nM; in assay [2] (Table 2) it was 204 nM.

Source of the values: patent US11993594B2, “IRAK inhibitors and method for making and using” (Rigel Pharmaceuticals, Inc., priority 2016, dated 2024).
